The record followed here is patent publication US20240025883A1, “PYRIMIDIN-2-YL SULFONAMIDE DERIVATIVES” (Hoffmann-La Roche Inc., priority 2021, published 2024).

Each structure is given as a SMILES string.

human GPR17 short isoform, sequence (Q13304 29-367): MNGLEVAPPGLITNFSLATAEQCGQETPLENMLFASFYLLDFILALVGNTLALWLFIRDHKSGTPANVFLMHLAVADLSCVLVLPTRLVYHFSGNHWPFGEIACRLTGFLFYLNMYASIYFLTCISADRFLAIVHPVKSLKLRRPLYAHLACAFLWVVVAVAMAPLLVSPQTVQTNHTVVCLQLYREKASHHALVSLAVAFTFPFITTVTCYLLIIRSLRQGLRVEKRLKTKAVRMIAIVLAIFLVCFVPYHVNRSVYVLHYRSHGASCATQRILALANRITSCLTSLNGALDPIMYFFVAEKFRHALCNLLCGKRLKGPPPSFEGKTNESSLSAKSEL

In the assay the target is human GPR17 short isoform (Homo sapiens (Human), UniProt Q13304). As to the kind of experiment: GPR17 cAMP assay (hGPR17 cAMP, antagonist mode against EC80 of MDL29,951). The class given is cell-based. The settings on record: CHO-K1 cells stably expressing human GPR17 short isoform; EC80 of agonist MDL29,951; forskolin 15 μM. The method, boiled down:
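cAMP was read by competitive TR-FRET after a 30 min room-temperature stimulation: antagonists plus EC80 MDL29,951 and 0.5 mM IBMX, followed 5 min later by 15 μM forskolin. Cells were CHO-K1 with stable human GPR17 short isoform in HBSS/HEPES/BSA, pH 7.4; percent activity versus reference antagonist fitted sigmoidally.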
As for `COc1nc(NS(=O)(=O)c2c[nH]c3nc(C)ccc23)nc(OC)c1OCC(F)F` [Example 285, N-[5-(2,2-Difluoroethoxy)-4,6-Dimethoxy-Pyrimidin-2-Yl]-6-Methyl-1H-Pyrrolo[2,3-b]Pyridine-3-Sulfonamide], the IC50 is 117 nM. Regarding `COc1nc(NS(=O)(=O)c2c[nH]c3cc(F)ccc23)nc(OC)c1CC(F)F` [Example 258, N-[5-(2,2-difluoroethyl)-4,6-dimethoxy-pyrimidin-2-yl]-6-fluoro-1H-indole-3-sulfonamide], the IC50 came to 37 nM. As to `COc1nc(NS(=O)(=O)c2csc3nc(Br)ccc23)nc(OC)c1CCC#N` [Example 151, 6-bromo-N-[5-(2-cyanoethyl)-4,6-dimethoxy-pyrimidin-2-yl]thieno[2,3-b]pyridine-3-sulfonamide], the 50% inhibitory concentration (IC50) was found to be 29 nM. Next, `COc1nc(NS(=O)(=O)c2c[nH]c3cc(Cl)ccc23)ncc1C` [Example 26, 6-chloro-N-(4-methoxy-5-methyl-pyrimidin-2-yl)-1H-indole-3-sulfonamide]: 809 nM; `COc1nc(NS(=O)(=O)c2c[nH]c3cc(Cl)ccc23)ncc1OC(F)(F)C(F)Cl` (centres unmarked) [Example 44, 6-chloro-N-[5-(2-chloro-1,1,2-trifluoro-ethoxy)-4-methoxy-pyrimidin-2-yl]-1H-indole-3-sulfonamide]: 131 nM; `COc1nc(NS(=O)(=O)c2c[nH]c3c(F)c(Cl)ccc23)ncc1OC(F)F` [Example 126, 6-chloro-N-[5-(difluoromethoxy)-4-methoxy-pyrimidin-2-yl]-7-fluoro-1H-indole-3-sulfonamide]: 82 nM. The molecule `COc1nc(NS(=O)(=O)c2c[nH]c3cc(Br)ccc23)nc(OC)c1CC(F)F` [Example 245, 6-bromo-N-[5-(2,2-difluoroethyl)-4,6-dimethoxy-pyrimidin-2-yl]-1H-indole-3-sulfonamide] came in with a half-inhibitory concentration (IC50) of 27 nM. This IC50 lies about 3-fold lower than the previous one. For `COc1nc(NS(=O)(=O)c2c[nH]c3nc(C(F)F)ccc23)nc(OC)c1CCC(F)F` [Example 98, 6-(difluoromethyl)-N-[5-(3,3-difluoropropyl)-4,6-dimethoxy-pyrimidin-2-yl]-1H-pyrrolo[2,3-b]pyridine-3-sulfonamide], the IC50 turned out to be 25 nM. Turning to `COc1nc(NS(=O)(=O)c2c[nH]c3nc(Cl)ccc23)nc(OC)c1OCC(F)F` [Example 206, 6-chloro-N-[5-(2,2-difluoroethoxy)-4,6-dimethoxy-pyrimidin-2-yl]-1H-pyrrolo[2,3-b]pyridine-3-sulfonamide], the IC50 is 57 nM. In the case of `COc1nc(NS(=O)(=O)c2c[nH]c3c(F)c(C(F)F)ccc23)nc(OC)c1OC(F)F` [Example 249, N-[5-(difluoromethoxy)-4,6-dimethoxy-pyrimidin-2-yl]-6-(difluoromethyl)-7-fluoro-1H-indole-3-sulfonamide] it was 36 nM. `COc1nc(NS(=O)(=O)c2c[nH]c3c(Br)c(Cl)ccc23)ncc1CC(F)F` [Example 142, 7-bromo-6-chloro-N-[5-(2,2-difluoroethyl)-4-methoxy-pyrimidin-2-yl]-1H-indole-3-sulfonamide] showed an IC50 of 29 nM. Molecule `COc1nc(NS(=O)(=O)c2c[nH]c3cc(F)ccc23)nc(OC)c1OCC(F)F` [Example 257, N-[5-(2,2-difluoroethoxy)-4,6-dimethoxy-pyrimidin-2-yl]-6-fluoro-1H-indole-3-sulfonamide] came in with a half-inhibitory concentration (IC50) of 84 nM. In the case of `COc1nc(NS(=O)(=O)c2c[nH]c3cc(Cl)ccc23)ncc1CC1CC1` [Example 46, 6-chloro-N-[5-(cyclopropylmethyl)-4-methoxy-pyrimidin-2-yl]-1H-indole-3-sulfonamide] it was 918 nM.

Turning to `CSc1nc(NS(=O)(=O)c2c[nH]c3cc(Cl)ccc23)ncc1OCC(F)F` [Example 35, 6-chloro-N-[5-(2,2-difluoroethoxy)-4-methylsulfanyl-pyrimidin-2-yl]-1H-indole-3-sulfonamide], the IC50 stood at 479 nM. In turn, `COc1nc(NS(=O)(=O)c2c[nH]c3cc(Cl)ccc23)nc(OC)c1C` [Example 17, 6-chloro-N-(4,6-dimethoxy-5-methyl-pyrimidin-2-yl)-1H-indole-3-sulfonamide] came in with a 50% inhibitory concentration (IC50) of 19 nM. For the molecule `COc1nc(NS(=O)(=O)c2csc3cc(Cl)ccc23)ncc1CCC#N` [Example 156, 6-chloro-N-[5-(2-cyanoethyl)-4-methoxy-pyrimidin-2-yl]benzothiophene-3-sulfonamide], the 50% inhibitory concentration (IC50) worked out at 92 nM. This IC50 is about 4.8-fold higher than that of the molecule before. Next, `COc1nc(NS(=O)(=O)c2c[nH]c3c(F)c(Br)ccc23)nc(OC)c1OC(F)F` [Example 241, 6-bromo-N-[5-(difluoromethoxy)-4,6-dimethoxy-pyrimidin-2-yl]-7-fluoro-1H-indole-3-sulfonamide]: 21 nM; `COc1nc(NS(=O)(=O)c2c[nH]c3cc(Cl)ccc23)ncc1OCCC(F)F` [Example 39, 6-chloro-N-[5-(3,3-difluoropropoxy)-4-methoxy-pyrimidin-2-yl]-1H-indole-3-sulfonamide]: 287 nM. In the case of `COc1nc(NS(=O)(=O)c2c[nH]c3nc(C(F)F)ccc23)ncc1OC(F)(F)CF` [Example 238, 6-(difluoromethyl)-N-[4-methoxy-5-(1,1,2-trifluoroethoxy)pyrimidin-2-yl]-1H-pyrrolo[2,3-b]pyridine-3-sulfonamide] it was 383 nM; in that of `COc1nc(NS(=O)(=O)c2c[nH]c3nc(Br)ccc23)nc(OC)c1CC(F)F` [Example 111, 6-bromo-N-[5-(2,2-difluoroethyl)-4,6-dimethoxy-pyrimidin-2-yl]-1H-pyrrolo[2,3-b]pyridine-3-sulfonamide], 13 nM. Molecule `COc1nc(NS(=O)(=O)c2c[nH]c3cc(Cl)ccc23)ncc1CC(F)(F)F` [Example 177, 6-chloro-N-[4-methoxy-5-(2,2,2-trifluoroethyl)pyrimidin-2-yl]-1H-indole-3-sulfonamide] displayed an IC50 of 162 nM. Compared with the last molecule, the IC50 is about 12-fold higher. Next, `COc1nc(NS(=O)(=O)c2csc3cc(C)ccc23)ncc1OCCF` [Example 159, N-[5-(2-fluoroethoxy)-4-methoxy-pyrimidin-2-yl]-6-methyl-benzothiophene-3-sulfonamide]: 218 nM; `COc1nc(NS(=O)(=O)c2c[nH]c3c(F)c(Br)ccc23)nc(OC)c1OCC(F)F` [Example 242, 6-bromo-N-[5-(2,2-difluoroethoxy)-4,6-dimethoxy-pyrimidin-2-yl]-7-fluoro-1H-indole-3-sulfonamide]: 43 nM. Molecule `COc1nc(NS(=O)(=O)c2c[nH]c3nc(Br)ccc23)nc(OC)c1C` [Example 160, 6-bromo-N-(4,6-dimethoxy-5-methyl-pyrimidin-2-yl)-1H-pyrrolo[2,3-b]pyridine-3-sulfonamide] returned an IC50 of 11 nM. On to `COC(=O)c1c(C)ccc2c(S(=O)(=O)Nc3ncc(CC(F)F)c(OC)n3)c[nH]c12` [Example 291, 3-[[5-(2,2-Difluoroethyl)-4-Methoxy-Pyrimidin-2-Yl]Sulfamoyl]-6-Methyl-1H-Indole-7-Carboxylic Acid Methyl Ester], for which the IC50 turned out to be 842 nM. In the case of `COc1nc(NS(=O)(=O)c2c[nH]c3cc(Br)ccc23)nc(OC)c1OC(F)F` [Example 90, 6-bromo-N-[5-(difluoromethoxy)-4,6-dimethoxy-pyrimidin-2-yl]-1H-indole-3-sulfonamide] it was 29 nM.
